Reference: patent US20240122179A1, “AUXINIC HERBICIDES AND METHODS OF USE THEREOF” (CORTEVA AGRISCIENCE LLC, priority 2021, published 2024)
Like-named read-outs stand apart in the source and are kept apart here.

Columns and labels:
[1] = system: Conyza canadensis (L.) (ERICA); assay: Postemergence herbicide evaluation, percent reduction in plant size vs untreated control, 21 days after treatment; type: in vivo, Conyza canadensis (L.) (Horseweed); conditions: Erigeron canadensis, post-emergence, 504 h, ERICA, postemergence, 21 days after treatment, read-out: Control/Injury; for pest or weed control at 140 g/ha: rate 140 g ae/ha; for pest or weed control at 280 g/ha: rate 280 g ae/ha
How it was run: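 Track-sprayer applications (187 L/ha, 276 kPa) of 140 or 280 g ae/ha, technical material dissolved in acetone/DMSO then diluted with crop oil and surfactant-containing solvent, to greenhouse Conyza canadensis at 2-8 leaves. After 21 days, size reduction relative to untreated plants was recorded; 3-4 randomized replicates.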

[2] = system: Glycine max; assay: whole plant or invertebrate; conditions: Glycine max, post-emergence, 504 h, read-out: Control/Injury
How it was run: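 Greenhouse soybean (25–28 °C, 16 h light) sprayed post-emergence at 2–8 leaf stage with 140 or 280 g ae/ha in acetone/DMSO-based spray solution with crop oil concentrate, 187 L/ha by track sprayer; 3–4 replicates, randomized blocks. Plant size reduction versus untreated control measured 21 days after treatment.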

[3] = system: Ambrosia artemisiifolia (AMBEL); assay: Postemergence herbicide evaluation, percent reduction in plant size vs untreated control, 21 days after treatment; type: in vivo, Ambrosia artemisiifolia (common ragweed); conditions: post-emergence, 504 h, AMBEL, postemergence, read-out: Control/Injury; for pest or weed control at 140 g/ha: rate 140 g ae/ha; for pest or weed control at 280 g/ha: rate 280 g ae/ha
How it was run: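 Test compounds at 140 or 280 g ae/ha were applied by track sprayer (187 L/ha, spray solution containing acetone/DMSO, isopropanol, crop oil, surfactant) to 2–8 leaf plants, 3–4 replicates. Plants were kept in a greenhouse at 25–28 °C. Size reduction was scored against untreated controls at 21 days.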

[4] = system: Amaranthus rudis (AMATA); assay: as above; type: in vivo, Amaranthus rudis (tall water hemp); conditions: Amaranthus tuberculatus, post-emergence, 504 h, AMATA, postemergence, read-out: Control/Injury; for pest or weed control at 140 g/ha: rate 140 g ae/ha; for pest or weed control at 280 g/ha: rate 280 g ae/ha
How it was run: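 Growth-reduction values are percent decrease in plant size relative to untreated plants, scored 21 days post-application. Amaranthus rudis (2-8 leaves) received postemergence sprays at 140 or 280 g ae/ha, 187 L/ha, in a mixed acetone/DMSO/water/isopropanol carrier with crop oil concentrate. Greenhouse conditions were 25-28° C, 50-60% RH; 3-4 randomized replicates.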

[5] = system: Kochia scoparia (KCHSC); assay: as above; type: in vivo; conditions: Bassia scoparia, post-emergence, 504 h, KCHSC, postemergence, 21 days after treatment, read-out: Control/Injury; for pest or weed control at 140 g/ha: rate 140 g ae/ha; for pest or weed control at 280 g/ha: rate 280 g ae/ha
How it was run: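 Values are percent reduction in plant size against an untreated control, measured 21 days after a single postemergence spray at 140 or 280 g ae/ha (187 L/ha, 276 kPa). Treatments used 3-4 randomized complete-block replicates on 2 to 8 leaf-stage plants kept in a 25-28 °C greenhouse, with compounds in acetone/DMSO-based solvent containing crop oil and surfactant.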

[6] = system: Amaranthus palmeri (AMAPA); assay: as above; type: in vivo, Amaranthus palmeri (Palmer amaranth); conditions: post-emergence, 504 h, postemergence, read-out: Control/Injury; for pest or weed control at 140 g/ha: rate 140 g ae/ha; for pest or weed control at 280 g/ha: rate 280 g ae/ha
How it was run: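 Percent reduction in plant size relative to untreated plants, measured 21 days after track-sprayer application (187 L/ha) of 140 or 280 g ae/ha to Amaranthus palmeri at the 2 to 8 leaf stage. Randomized complete block, 3 or 4 replicates, greenhouse at 25 to 28° C; spray solution acetone/DMSO with isopropanol, water and crop oil concentrate.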

[7] = Volatility of compounds measured by thermogravimetric analysis (TGA), rate of weight loss; type: physicochemical; conditions: estimates of volatility
Text: Briefly, the rate of weight loss measured in units of […]g/min can be used to determine vapor pressure as shown by the simplified equation: wherein, k is the intrinsic volatility and A is the surface area, Referring now to FIG. 2. A graph of weight loss as function of time for solid samples produces a linear curve; the slope of the curve is the rate of weight loss. When this method is used to measure the volatility of aqueous salt concentrates or liquid concentrates, the water or acetone present in the sample volatilizes before the sample of interest. The first linear loss region of the curve is the loss of water or acetone and the second linear region is characteristic of the sample of interest. In order to illustrate the difference in volatility between some of the compounds disclosed herein and the widely used herbicide dicamba, data from both the compounds and dicamba are presented Table 3 and in FIG. 1.

[8] = percent reduction vs untreated control
[9] = R-AMAPA, percent reduction vs untreated control, 21 days after treatment

Row | SMILES | pest or weed control at 140 g/ha [1, 8] [%] | pest or weed control at 280 g/ha [1, 8] [%] | plant injury at 140 g/ha [2] [%] | plant injury at 280 g/ha [2] [%] | pest or weed control at 140 g/ha [3] [%] | pest or weed control at 280 g/ha [3] [%] | pest or weed control at 140 g/ha [4] [%] | pest or weed control at 280 g/ha [4] [%] | pest or weed control at 140 g/ha [5, 8] [%] | pest or weed control at 280 g/ha [5, 8] [%] | pest or weed control at 140 g/ha [6, 9] [%] | pest or weed control at 280 g/ha [6, 9] [%] | Volatility [7] [ng/min] | pest or weed control at 140 g/ha ([1]; percent reduction vs untreated) [%] | pest or weed control at 280 g/ha ([1]; percent reduction vs untreated) [%] | pest or weed control at 140 g/ha ([5]; percent reduction vs untreated) [%] | pest or weed control at 280 g/ha ([5]; percent reduction vs untreated) [%] | pest or weed control at 140 g/ha ([6]; AMAPA) [%] | pest or weed control at 280 g/ha ([6]; AMAPA) [%]
1 | COc1c(Cl)ccc(Cl)c1C(=O)O/N=C/c1ccco1 [Compound A-88] | 75 | 94 | 10 | 3 | 70 | 82 | 72 | 80 | 87 | 94 | 67 | 68 | 0.35 |  |  |  |  |  | 
2 | COc1c(Cl)ccc(Cl)c1C(=O)O/N=C(\N)c1ccc2ccccc2c1 [Compound A-138] |  |  |  |  | 79 | 76 | 65 | 64 |  |  |  |  | 0.008 | 75 | 70 | 91 | 91 | 73 | 59
3 | CCCC[C@H](CC)COC(=O)c1c(Cl)ccc(Cl)c1OC [Compound A-137] |  |  |  |  | 33 | 36 | 1 | 8 |  |  |  |  | 3.42 | 0 | 0 | 6 | 3 | 15 | 15
4 | COc1c(Cl)ccc(Cl)c1C(=O)O/N=C(\SC)c1ccccc1 [Compound A-85] | 37 | 68 | 5 | 7 | 67 | 78 | 57 | 73 | 95 | 97 | 68 | 72 | 0.28 |  |  |  |  |  | 
